Measurements from US11384071B2, “Inhibitors of mechanotransduction to treat pain and modulate touch perception” (Max-Delbrück-Centrum für Molekulare Medizin in der …, priority 2016, dated 2022).

What was measured:
human STOML3 = target: T1, human STOML3 (Homo sapiens, UniProt Q8TAV4); experiment: BiFC assay of human STOML3 self-association; format: cell-based
T1 construct: expressed in transfected cells; host or cells: HEK293 (general statement on the BiFC assay)
Source text: (§1) In mammals STOML3 belongs to a family of five structurally conserved membrane proteins, including stomatin, STOML1, STOML2, and podocin^10,12-16, all of which self-associate via their stomatin-domain (FIG. 8a)^10. Self-association of stomatin-domain proteins can be monitored in HEK293 cells using Bimolecular Fluorescence Complementation (BiFC) whereby N- and C-terminal halves of the YFP molecule are tagged to the prey and bait protein STOML3^2,17 (FIG. 1a). Irreversible association of the YFP fragments produces fluorescence that increases linearly over time (FIG. 1b).

Podocin = target: T2, Podocin (Mus musculus, UniProt Q91X05); experiment: BiFC assay of podocin self-association; format: cell-based
T2 construct: expressed in transfected cells; host or cells: HEK293 (general statement on the BiFC assay)
Procedure: (§2) FIG. 8: Effects of STOML3 modulating molecules on other Stomatin-domain proteins. (a) BiFC signal development observed when cells were transfected with Stomatin-VC/-VN, STOML1-VC/-VN, STOML2-VC/-VN, STOML3-VC/-VN or Podocin-VC/-VN expression constructs respectively. […] (b) OB-1 was tested at two different concentrations (2 μm and 20 μm) using the BiFC assay where wild type STOML3 was used as both bait and prey.
as §1

ASIC3 = experiment: pH-gated ASIC3 currents and stomatin modulation in CHO cells; format: cell-based
Procedure: To test the effect of compounds on stomatin modulation of ASIC currents CHO cells were transfected with vectors encoding Stomatin and ASIC3, in a ratio of 4:1 using lipofectamine, as per manufacturer's instructions. Cells were incubated with 20 μM OB-1 for 3 hours in extracellular buffer (see above), and OB-1 was maintained in the media during electrophysiological experiments. ASIC3 channels were gated by applying solutions of pH6 and pH4, and both the transient and sustained peak current density was measured.

[1] = tested on: Spared tibial nerve injury (SNI) mice; experiment: Spared nerve injury (SNI) model, paw withdrawal thresholds; format: in vivo, mouse; conditions: administration to the plantar skin
Source text: (§3) Mice were allowed to habituate to the testing apparatus (acrylic chambers 10×10 cm in size, suspended above a wired mesh grid) one hour prior to behavioral testing. Only once the subject was at rest and not moving, calibrated von-Frey hair monofilaments (Aesthesio® set of 20 monofilaments, Ugo Basil) were applied to the plantar surface of the hind paw in order to deliver target forces from 0.008 grams to 4 grams increasing in an approximately logarithmic scale. A single stimulus indicated by a slight bending of the filament lasted for two seconds unless the mouse withdrew its paw. In order to measure mechanosensitivity the up-and-down method described by Chaplan^13 was adapted as follows: Testing began with a filament delivering a target force of 0.4 g, but filaments were applied three times. A positive response was noted if the subject withdrew the paw to all three filament applications, so that the successively smaller filament was presented next. […] Paw withdrawal thresholds were calculated as median of 23 to 30 determined turning points of the particular force stimuli applied to the subject.

[2] = tested on: mice with chronic constriction injury; experiment: Chronic constriction injury (CCI) model, paw withdrawal thresholds to von Frey filaments; format: in vivo, mouse
Source text: In deeply anaesthetized mice using isoflurane delivered in 100% 02 (Univentor 410 Anaesthesia unit; Univentor, Malta), four loose silk (5/0; Catgut GmbH Markneukirchen) ligatures were placed around the sciatic nerve at the level of the right mid-thigh as described previously (Wetzel et al., 2007).
as §3
Drug injections of OB-1 or DMSO alone were dissolved in Ringer's solution (in mM: 135 NaCl, 5 KCl, 5 HEPES, 1.8 CaCl2), 1 MgCl2) to make the OB-1 and vehicle solution. Injections were made 3 hours prior to behavioral testing, approximately 20 μl solution, 250 pmol per paw, was injected into the palm with a Hamilton syringe, gauge 33. During the injection procedure, the mouse was anaesthetized with isoflurane (1.5 to 2.5% in 02). The injection procedure lasted around 3 minutes after which the mouse was moved to the home cage for recovery before behavioral testing.
(§4) We next interrogated whether local application of OB-1 can ameliorate tactile-evoked pain behavior in neuropathic models. […] We decided to test this idea more directly by testing the effects of local OB-1 on the mechanical sensitivity of Stoml3^−/− mice with CCI. […] Off-target effects are an issue for any biologically active small molecule. We therefore tested the effects of 20 μM OB-1 in a commercially available in vitro pharmacology panel (www.cerep.fr) consisting of 79 receptors and ion channels.

[3] = tested on: cutaneous sensory afferents of the saphenous nerve; experiment: Ex vivo skin-nerve preparation after local injection into the paw; format: in vivo, mouse; conditions: recordings 24 h after treatment
[4] = tested on: 79 receptors and ion channels; experiment: Commercial in vitro pharmacology panel (cerep); format: binding; conditions: 20 μM, panel of 79 receptors and ion channels
Procedure: as §4

hsSTOML3 = target: T3, hsSTOML3 (Homo sapiens, UniProt Q8TAV4); experiment: TriGFP assay of hsSTOML3 self-association in N2a cells, flow cytometry; format: cell-based; conditions: 20 μM, 16 h, vs vehicle
T3 construct: expressed in transfected cells; host or cells: N2a
Procedure: (a) The assay is based on the tripartite association between the two twenty amino-acids long GFP tags GFP10 and GFP11, which were fused to hsSTOML3 protein partners, and the complementary GFP1-9 detector (Reference 50). When hsSTOML3 proteins interact, GFP10 and GFP11 self-associate with GFP1-9 and reconstitute functional GFP.
N2a cells were cultured in 6-well plates to approximately 70% confluence; cells were co-transfected with plasmids encoding GFP1-9, STOML3-GFP10 and STOML3-GFP11 using PEI, as per manufacturer's instructions. The transfection reaction was allowed to proceed for 8 h before compound incubation at 20 μM final concentration. Twenty-four hours after transfection cells were collected, fixed with 4% PFA for 10 minutes and resuspended in PBS. Cell suspensions were used for flow cytometry analysis.
In this assay, N2a cells were co-transfected with plasmids encoding GFP1-9, STOML3-GFP10 and STOML3-GFP11 and incubated with either vehicle (0.4% DMSO) or OB-1 derivatives at 20 μM final concentration for 16 h. Twenty-four hours after transfection cells were collected, fixed with 4% PFA and resuspended in PBS.

stomatin = target: T4, stomatin (Mus musculus, UniProt P54116); experiment: BiFC assay of stomatin self-association; format: cell-based
T4 construct: expressed in transfected cells; host or cells: HEK293 (general statement on the BiFC assay)
Procedure: as §2, §1

[5] = tested on: RA-currents in mechanoreceptor sensory neurons; experiment: Cell soma indentation, RA-mechanosensitive currents in sensory neurons; format: cell-based, mouse
Procedure: Whole-cell, patch-clamp recordings were conducted as previously described 5-7, using patch pipettes with a tip resistance of 3-6 MΩ, filled with a solution of: 110 mM KCl, 10 mM NaCl, 1 mM MgCl2, 1 mM EGTA and 10 mM HEPES, adjusted to pH 7.3 with KOH. (For experiments on DRG neurons 10 mM QX-314 was added to the pipette to block voltage-gated sodium channels 8 Extracellular solutions contained 140 mM NaCl, 4 mM KCl, 2 mM CaCl2, 1 mM MgCl2, 4 mM glucose, 10 mM HEPES, adjusted to pH 7.4 with NaOH. A Zeiss 200 inverted microscope and an EPC-10 amplifier in combination with Patchmaster software was used, data was analyzed using Fitmaster software (HEKA Electronik GmbH, Germany). Pipette and membrane capacitance were compensated using the auto function of Patchmaster, series resistance was compensated by at least 60% to minimize voltage errors. Mechanical stimuli were applied using a polished glass probe driven by the MM3A micromanipulator (Kleindiek Nanotechnik, Germany). Mechanical stimuli were applied by either; indenting the cell soma or by culturing cells on elastomeric pillar arrays and applying the stimulus to the cell-substrate interface by deflecting an individual pilus.
We evaluated the effects of OB-1 and OB-2 on mechanosensitive currents in acutely cultured mouse sensory neurons. […]

T2 sequence (Q91X05 whole entry): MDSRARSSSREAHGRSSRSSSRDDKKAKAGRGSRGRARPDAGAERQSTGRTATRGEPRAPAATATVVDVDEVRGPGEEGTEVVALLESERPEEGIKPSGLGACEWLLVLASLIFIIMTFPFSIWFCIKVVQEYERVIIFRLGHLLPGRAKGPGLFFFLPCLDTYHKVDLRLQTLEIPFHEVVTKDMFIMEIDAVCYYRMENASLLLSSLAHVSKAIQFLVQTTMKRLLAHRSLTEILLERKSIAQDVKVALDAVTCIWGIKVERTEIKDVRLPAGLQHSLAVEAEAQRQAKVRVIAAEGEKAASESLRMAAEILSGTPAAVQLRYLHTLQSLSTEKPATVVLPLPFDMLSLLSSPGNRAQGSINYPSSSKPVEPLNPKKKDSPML
T4 sequence (P54116 whole entry): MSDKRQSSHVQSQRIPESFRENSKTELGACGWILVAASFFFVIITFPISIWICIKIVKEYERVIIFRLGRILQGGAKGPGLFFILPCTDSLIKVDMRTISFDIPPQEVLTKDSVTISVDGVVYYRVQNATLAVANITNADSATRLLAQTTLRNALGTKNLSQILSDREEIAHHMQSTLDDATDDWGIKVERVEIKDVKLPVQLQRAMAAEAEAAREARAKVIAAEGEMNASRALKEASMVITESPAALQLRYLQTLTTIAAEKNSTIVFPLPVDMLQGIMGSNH
T3 sequence (Q8TAV4 whole entry): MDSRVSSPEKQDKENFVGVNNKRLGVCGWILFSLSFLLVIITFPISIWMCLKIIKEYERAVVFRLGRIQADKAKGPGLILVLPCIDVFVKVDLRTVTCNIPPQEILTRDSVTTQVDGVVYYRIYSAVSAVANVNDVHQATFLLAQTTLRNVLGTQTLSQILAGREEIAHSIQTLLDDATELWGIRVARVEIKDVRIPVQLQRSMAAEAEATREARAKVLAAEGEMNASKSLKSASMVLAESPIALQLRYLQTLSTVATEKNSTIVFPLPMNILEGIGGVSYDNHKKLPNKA
T1 sequence (Q8TAV4 whole entry): as above

CCOC(=O)c1c(-c2ccccc2)oc2ccc(Oc3c([N+](=O)[O-])ncn3C)cc12 [OB-1, Ethyl 5-((1-methyl-4-nitro-1H-imidazol-5-yl)oxy)-2-phenylbenzofuran-3-carboxylate]
self-association of the human STOML3 protein (BiFC) (human STOML3): inhibited | oligomerization of Podocin (BiFC) (Podocin): does not affect | ASIC3-mediated pH-evoked currents (transient and sustained) (ASIC3; CHO cells expressing ASIC3, 20 μm): no effect | negative modulation of ASIC3 mediated currents by mouse stomatin (ASIC3; CHO cells, 20 μM, 3 hours): no detectable effect | allodynia [1]: no reversal | effect of a single dose after 24 h ([2]; CCI): absent | time of maximal effect after a single local injection ([2]; CCI): 3 h | established hypersensitivity ([2]; CCI, applied to the contralateral paw): no reversal | half-maximal effective dose (ED50) ([2]; CCI, paw withdrawal threshold, local injection): 4.42 µM | half-maximal effective dose (ED50) ([2]; CCI, per paw): approximately 20 pmol | paw withdrawal threshold ([2]; Stoml3−/− mice with CCI, local treatment of neuropathic paws): no change | mechanical hypersensitivity ([2]; female mice with CCI, similar extent to males): reversed | tactile-evoked pain or allodynia ([2]; wild type mice, CCI 6-21 days after induction, intraplantar ipsilateral): complete reversal | mechanoreceptor silencing effect, reversibility [3]: completely reversible | receptors with significant inhibition of specific ligand binding [4]: 6/79 | hsSTOML3 self-association (GFP signal intensity) (hsSTOML3): strongly reduce | self-association of stomatin (BiFC) (stomatin): effective inhibitor | inactivation time constant (τ2) of mechanically-gated currents [5]: slowed | neurons displaying no mechanosensitive current ([5]; 12/21 neurons, control 21%): ~60%
